Values quoted from earlier work, collected in patent US6491840B1, “Polymer compositions having specified PH for improved dispensing and improved stability of wrinkle reducing compositions and methods of use” (The Procter & Gamble Company, priority 2000, dated 2002).

In the case of `ClC=CC[N+]12CN3CN(CN(C3)C1)C2.[Cl-]` [Dowicil 200, 1-(3-Chlorallyl)-3,5,7-triaza-1-azoniaadamantane chloride], the “solubility in water” value is given as “freely soluble in water”.
